Data taken from paper PMC4628998 (BioMed Research International, 2015).

Target: T1, CK2α (Zea mays) (Zea mays, UniProt P28523)
T1 construct: gene ACK2; catalytic subunit CK2α alone
Assay: radiometric peptide phosphorylation assay, residual activity at […]
Assay type: biochemical

T1 sequence (P28523 whole entry): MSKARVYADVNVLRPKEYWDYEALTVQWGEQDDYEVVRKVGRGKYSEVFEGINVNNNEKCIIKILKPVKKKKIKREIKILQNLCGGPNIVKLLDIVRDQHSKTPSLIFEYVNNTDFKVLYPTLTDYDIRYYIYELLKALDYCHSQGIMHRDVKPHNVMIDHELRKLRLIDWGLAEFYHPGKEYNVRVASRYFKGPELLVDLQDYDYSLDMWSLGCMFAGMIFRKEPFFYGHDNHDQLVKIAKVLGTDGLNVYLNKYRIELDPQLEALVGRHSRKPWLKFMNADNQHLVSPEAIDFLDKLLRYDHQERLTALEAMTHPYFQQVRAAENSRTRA

With `O=C1c2ccc(O)c(O)c2C(=O)c2c(O)ccc(O)c21` [quinalizarin, 1,2,5,8-tetrahydroxyanthraquinone] the activity at 1 µM was 33%.
